Test results taken from ChEMBL document CHEMBL1201862, “PubChem BioAssay data set” (2004).
Active and inactive are the calls of the source.

Tests used:
[1] = tested on: Vero; assay: cells; assay type: functional, cell-based; details: Chlorocebus sabaeus
[2] = target: T1, Coagulation factor XII (Homo sapiens, UniProt P00748); assay type: functional;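 note: activated factor XIIa alpha cleaving a fluorogenic AMC peptide substrate; inhibitor potency from loss of enzyme activity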
T1 sequence (P00748 whole entry): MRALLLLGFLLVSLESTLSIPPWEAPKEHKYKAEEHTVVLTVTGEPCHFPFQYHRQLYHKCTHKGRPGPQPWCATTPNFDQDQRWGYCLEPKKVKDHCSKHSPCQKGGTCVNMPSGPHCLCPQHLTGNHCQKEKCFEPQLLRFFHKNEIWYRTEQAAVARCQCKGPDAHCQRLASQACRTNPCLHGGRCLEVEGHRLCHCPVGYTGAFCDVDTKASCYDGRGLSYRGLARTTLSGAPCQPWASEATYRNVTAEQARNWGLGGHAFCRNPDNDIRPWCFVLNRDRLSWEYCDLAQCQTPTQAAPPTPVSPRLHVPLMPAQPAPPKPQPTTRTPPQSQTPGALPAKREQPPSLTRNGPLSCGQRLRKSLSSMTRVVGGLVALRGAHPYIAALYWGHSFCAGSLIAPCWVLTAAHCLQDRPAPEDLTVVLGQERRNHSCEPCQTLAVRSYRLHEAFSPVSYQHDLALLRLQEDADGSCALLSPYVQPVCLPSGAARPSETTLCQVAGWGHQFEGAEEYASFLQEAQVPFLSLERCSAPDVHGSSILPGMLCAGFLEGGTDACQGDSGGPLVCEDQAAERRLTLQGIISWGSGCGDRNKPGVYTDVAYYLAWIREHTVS

[3] = target: T2, Beta-galactosidase (Escherichia coli, UniProt Q8VNN2); assay: PubChem AID 485352; assay type: functional
T2 sequence (Q8VNN2 whole entry): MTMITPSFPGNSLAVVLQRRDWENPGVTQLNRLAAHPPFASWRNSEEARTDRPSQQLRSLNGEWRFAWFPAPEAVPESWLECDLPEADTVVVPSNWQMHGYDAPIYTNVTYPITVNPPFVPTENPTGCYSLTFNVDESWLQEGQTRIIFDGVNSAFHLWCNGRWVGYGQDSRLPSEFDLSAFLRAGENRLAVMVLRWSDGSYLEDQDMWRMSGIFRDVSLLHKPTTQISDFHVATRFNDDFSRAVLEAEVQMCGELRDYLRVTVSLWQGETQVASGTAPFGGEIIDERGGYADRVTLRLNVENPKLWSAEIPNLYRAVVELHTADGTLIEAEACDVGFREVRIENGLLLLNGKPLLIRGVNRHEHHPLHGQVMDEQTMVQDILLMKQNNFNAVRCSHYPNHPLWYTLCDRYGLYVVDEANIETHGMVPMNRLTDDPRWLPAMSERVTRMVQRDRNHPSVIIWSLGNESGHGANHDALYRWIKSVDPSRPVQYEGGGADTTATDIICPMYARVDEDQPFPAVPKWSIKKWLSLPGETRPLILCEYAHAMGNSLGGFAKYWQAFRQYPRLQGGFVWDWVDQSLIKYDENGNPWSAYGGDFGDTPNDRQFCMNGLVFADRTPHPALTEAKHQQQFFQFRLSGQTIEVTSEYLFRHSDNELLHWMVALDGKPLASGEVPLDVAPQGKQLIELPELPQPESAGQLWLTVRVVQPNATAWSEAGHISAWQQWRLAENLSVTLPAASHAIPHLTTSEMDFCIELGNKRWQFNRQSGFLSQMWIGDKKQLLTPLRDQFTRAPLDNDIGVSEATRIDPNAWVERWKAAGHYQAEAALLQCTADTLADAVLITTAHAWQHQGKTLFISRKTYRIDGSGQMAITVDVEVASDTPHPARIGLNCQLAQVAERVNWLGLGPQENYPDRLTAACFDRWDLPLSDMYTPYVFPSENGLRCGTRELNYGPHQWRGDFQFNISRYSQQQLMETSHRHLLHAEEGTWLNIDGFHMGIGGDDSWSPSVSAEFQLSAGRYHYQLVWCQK

[4] = target: T3, Type-1 angiotensin II receptor (Homo sapiens, UniProt P30556); assay: antagonism of angiotensin II type 1 receptor – cell-based, uHTS hits, selectivity assay for APJ receptor antagonist project, dose response (AID 463214); assay type: functional;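 note: antagonist potency against angiotensin II stimulated AT1 response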
T3 sequence (P30556 whole entry): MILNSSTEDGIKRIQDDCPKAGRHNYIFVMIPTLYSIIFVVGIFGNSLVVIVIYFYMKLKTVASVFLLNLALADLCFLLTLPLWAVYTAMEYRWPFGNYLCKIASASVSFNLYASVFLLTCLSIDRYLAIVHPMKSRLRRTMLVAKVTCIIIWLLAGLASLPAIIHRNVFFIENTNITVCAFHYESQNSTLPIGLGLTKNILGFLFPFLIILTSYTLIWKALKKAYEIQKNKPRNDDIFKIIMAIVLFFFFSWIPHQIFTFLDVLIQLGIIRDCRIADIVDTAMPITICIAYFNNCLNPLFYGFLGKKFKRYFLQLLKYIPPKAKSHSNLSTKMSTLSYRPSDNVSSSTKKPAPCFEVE

[5] = reduction of Shn3 3'UTR-driven luciferase in osteoblasts – cell-based, Clone20 osteoblasts, firefly luciferase, cherry-picked, dose response (AID 624132); assay type: functional;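 note: firefly luciferase luminescence from reporter carrying the Shn3 3'UTR in osteoblasts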
[6] = loss of viability in HepG2 cells – cell-based, CellTiter-Glo, cherry-picked, cytotoxicity control for Shn3 inhibitor project, dose response (AID 624134); assay type: functional
[7] = non-specific 3'UTR reporter inhibition in Clone20-Shn3RL – cell-based, Renilla luciferase, cherry-picked, counter-screen for Shn3 inhibitor project, dose response (AID 624133); assay type: functional
[8] = target: T2, Beta-galactosidase; assay: Dose response counterscreen for EBI2 assay utilizing the enzyme, b-galactosidase.; assay type: functional
[9] = NIH-3T3 fibroblast cytotoxicity, dose response, cytotoxicity control, cell-based, fluorescence, Alamar Blue, secondary assay (AID 2327); assay type: functional;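 note: NIH-3T3 mouse fibroblasts cultured with fluconazole at 8 µg/mL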
[10] = fluconazole-exposed Candida albicans growth modulators – fluorescence, retest, confirmation (AID 2467); assay type: functional, cell-based
[11] = target: T4, Polyadenylate-binding protein 1 (Homo sapiens, UniProt P11940); assay: MLLE binding blockers, Cy5 peptide tracer – biochemical, fluorescence polarization, Cy5-PAM2 peptide, secondary, miRNA deadenylation inhibitor project, dose response (AID 602260); assay type: functional; details: read-out: IC50_Mean
T4 sequence (P11940 whole entry, the tested form may be a part): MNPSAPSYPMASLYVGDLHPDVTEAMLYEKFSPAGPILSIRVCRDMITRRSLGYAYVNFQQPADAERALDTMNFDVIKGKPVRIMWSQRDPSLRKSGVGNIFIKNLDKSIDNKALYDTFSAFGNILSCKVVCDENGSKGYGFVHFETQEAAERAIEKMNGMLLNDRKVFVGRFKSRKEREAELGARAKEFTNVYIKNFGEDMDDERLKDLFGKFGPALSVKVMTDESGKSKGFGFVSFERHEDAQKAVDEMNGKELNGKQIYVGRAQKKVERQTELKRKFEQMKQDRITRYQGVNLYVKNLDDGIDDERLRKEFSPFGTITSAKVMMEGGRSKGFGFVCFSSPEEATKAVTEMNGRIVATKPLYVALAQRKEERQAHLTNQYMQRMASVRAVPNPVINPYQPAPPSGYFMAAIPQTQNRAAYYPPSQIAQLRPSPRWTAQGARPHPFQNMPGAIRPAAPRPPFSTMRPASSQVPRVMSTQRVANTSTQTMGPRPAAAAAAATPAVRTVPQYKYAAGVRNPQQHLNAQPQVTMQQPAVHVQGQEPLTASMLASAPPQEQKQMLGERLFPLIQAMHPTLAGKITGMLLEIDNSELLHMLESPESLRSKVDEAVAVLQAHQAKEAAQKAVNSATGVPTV

[12] = target: T4, Polyadenylate-binding protein 1; assay: MLLE domain peptide-binding blockers, IC50 – biochemical, fluorescence polarization, FITC-PAM2 peptide, dose response (AID 602259); assay type: functional; details: read-out: IC50_Mean
[13] = HEK-293T cell viability reduction – luminescence, B-cell screen hits, cytotoxicity control for BCR NF-kB inhibitor project, dose response (AID 489021); assay type: functional, cell-based;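 note: HEK-293T cells carrying an NF-kB luciferase reporter; cells exposed to compound for about 14 hours before viability readout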
[14] = target: Melanocortin receptor 4 (Homo sapiens, UniProt P32245); assay: inhibitors of MC4R cAMP signaling – cell-based, TR-FRET, biased antagonists, dose response (AID 602298); assay type: functional;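 note: antagonist potency against agonist-stimulated cAMP production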
Chain of Melanocortin receptor 4 (P32245 whole entry): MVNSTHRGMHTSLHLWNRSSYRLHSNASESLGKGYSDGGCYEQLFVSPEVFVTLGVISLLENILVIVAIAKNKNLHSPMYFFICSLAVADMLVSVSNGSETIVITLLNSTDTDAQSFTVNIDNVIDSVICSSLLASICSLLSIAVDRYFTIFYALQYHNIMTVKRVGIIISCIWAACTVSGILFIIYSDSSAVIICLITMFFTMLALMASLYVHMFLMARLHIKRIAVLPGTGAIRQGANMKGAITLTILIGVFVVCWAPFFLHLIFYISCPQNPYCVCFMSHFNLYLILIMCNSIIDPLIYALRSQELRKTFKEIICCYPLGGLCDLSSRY

[15] = cAMP pathway inhibition in counterscreen cell line – TR-FRET cAMP detection, counter-screen for MC4R biased antagonist project, dose response (AID 602305); assay type: functional, cell-based;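 note: U2OS cells stimulated with forskolin near its EC80 as the cAMP inducer; potency is for inhibition of forskolin-stimulated cAMP signaling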

O=C1C2CCCN2C(c2ccccc2)N1c1ccc(Cl)cc1 (stereo unspecified)
IC50 [1]: > 25 µM (active)

COc1cccc(NC(=O)Nc2cccnc2)c1
IC50 [2]: > 50 µM (inactive)

Cc1ccc2c(c1)nnn2C1CCN(CC(=O)NCCc2nc3ccccc3[nH]2)CC1
EC50 [3]: > 40 µM (inactive) | IC50 [4]: > 40 µM (not active)

CCOC(=O)c1c(O)c2cc(Cl)ccc2n(CC)c1=O
IC50 [2]: > 50 µM (inactive)

Cc1nc2ccccc2c2oc(C(=O)N3CCN(C4CCCCC4)CC3)cc12
AC50 [5]: 7.02 µM (active) | AC50 [6]: 68.8 µM (active) | AC50 [7]: 3.44 µM (active) | IC50 [8]: > 80 µM (inactive)

Cc1cc(OCC(=O)N(C)Cc2ccccc2)ccc1Br
IC50 [8]: > 80 µM (inactive)

O=C(NNc1ccc(Cl)cc1)c1sccc1Cl
EC50 [9]: 3.77 µM (active) | EC50 [3]: > 40 µM (inactive) | EC50 [10]: 2.04 µM (active) | IC50 [4]: 12.4 µM (active) | IC50 [11]: > 66 µM (inactive) | IC50 [12]: > 66 µM (inactive)

COc1ccc(-c2noc(N3CCC(C(=O)Nc4ccc(OC)c(OC)c4)CC3)n2)cc1
IC50 [13]: > 80 µM (inactive)

COc1ccc(-n2cc(-c3ccc(Br)cc3)nc2S)cc1
IC50 [8]: > 80 µM (inactive)

CCN1C(=O)/C(=C\c2ccco2)C(C(=O)OC)=C1C
IC50 [2]: > 50 µM (inactive)

O=S(=O)(c1ccc(F)cc1)N1CCN(c2nc(-c3cccnc3)nc3ccccc23)CC1
IC50 [14]: > 64.6 µM (inactive) | IC50 [15]: > 64.6 µM (inactive)
